Reference: ChEMBL document CHEMBL5370665, “Insight from Linker Investigations: Discovery of a Novel Phenylbenzothiazole Necroptosis Inhibitor Targeting Receptor-Interacting Protein Kinase 1 (RIPK1) from a Phenoxybenzothiazole Compound with Dual RIPK1/3 Targeting Activity” (J Med Chem, 2023)
The source made the active and inactive calls. No cut-off for these calls is given here.

Columns and labels:
HT-29 [1] = assay: Anti-necroptic activity against human HT-29 cells assessed as inhibition of TCZ (human TNFalpha, cycloheximide and z-VAD-FMK) induced necroptosis at 125 to 500 nM pretreated with compound followed by TCZ stimulation for 18 hrs by CellTiter-Glo Luminescent cell viability assay; type: functional, cell-based; details: dose 125-500 nM
HT-29 [2] = assay: Anti-apoptotic activity against human HT-29 cells assessed as inhibition of TS (human TNFalpha, Smac mimetic) induced apoptosis upto 1 uM pretreated with compound followed […] for 24 hrs by CellTiter-Glo Luminescent cell viability assay; type: functional, cell-based
HT-29 [3] = assay: Anti-apoptotic activity against human HT-29 cells assessed as inhibition of TC (human TNFalpha, cycloheximide) induced apoptosis upto 20 uM pretreated with compound followed by TC stimulation for 36 hrs by CellTiter-Glo Luminescent cell viability assay; type: functional, cell-based
[4] = target: Receptor-interacting serine/threonine-protein kinase 3 (Homo sapiens, UniProt Q9Y572); assay: Inhibition of RIPK3 phosphorylation in TSZ induced human HT-29 cells at 1 to 1000 nM pretreated with compound followed by TSZ stimulation for 6 hrs by Western blot analysis; type: cell-based; details: dose 1-1000 nM
Receptor-interacting serine/threonine-protein kinase 3, sequence (Q9Y572 whole entry, looked up, the tested form may be a part): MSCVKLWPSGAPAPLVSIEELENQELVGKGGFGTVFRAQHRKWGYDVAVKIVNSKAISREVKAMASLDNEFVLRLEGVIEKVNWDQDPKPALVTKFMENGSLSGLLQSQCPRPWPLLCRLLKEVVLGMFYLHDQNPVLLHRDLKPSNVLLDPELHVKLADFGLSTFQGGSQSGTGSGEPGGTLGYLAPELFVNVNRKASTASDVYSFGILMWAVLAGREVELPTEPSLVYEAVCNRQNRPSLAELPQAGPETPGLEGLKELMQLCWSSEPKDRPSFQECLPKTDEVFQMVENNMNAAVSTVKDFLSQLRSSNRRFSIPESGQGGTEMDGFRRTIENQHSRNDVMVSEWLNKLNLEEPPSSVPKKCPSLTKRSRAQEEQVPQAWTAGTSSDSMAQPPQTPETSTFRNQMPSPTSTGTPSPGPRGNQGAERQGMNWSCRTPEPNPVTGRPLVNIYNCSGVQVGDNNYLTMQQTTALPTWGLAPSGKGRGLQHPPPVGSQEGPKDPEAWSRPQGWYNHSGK

[5] = target: T1, Mixed lineage kinase domain-like protein (Homo sapiens) (UniProt Q8NB16); assay: Inhibition of MLKL phosphorylation in TSZ induced human HT-29 cells at 1 to 1000 nM pretreated with compound followed by TSZ stimulation for 6 hrs by Western blot analysis; type: cell-based; details: dose 1-1000 nM
T1 sequence (whole entry): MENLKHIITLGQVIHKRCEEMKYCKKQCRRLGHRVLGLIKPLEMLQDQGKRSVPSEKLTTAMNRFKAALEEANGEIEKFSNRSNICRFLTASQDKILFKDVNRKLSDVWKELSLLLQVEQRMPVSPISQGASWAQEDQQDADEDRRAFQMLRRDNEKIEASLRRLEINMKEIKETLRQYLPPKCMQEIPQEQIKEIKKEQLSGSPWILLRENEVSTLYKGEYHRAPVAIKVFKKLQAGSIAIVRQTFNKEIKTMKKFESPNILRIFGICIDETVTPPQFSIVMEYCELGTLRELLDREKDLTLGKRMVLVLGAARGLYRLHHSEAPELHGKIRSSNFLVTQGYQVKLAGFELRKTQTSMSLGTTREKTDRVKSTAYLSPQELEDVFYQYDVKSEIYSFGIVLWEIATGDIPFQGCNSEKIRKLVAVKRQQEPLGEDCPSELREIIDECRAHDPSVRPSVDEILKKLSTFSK

Mus musculus [6] = assay: Anti-inflammatory activity against C57BL/6J mouse model of TNFalpha-induced systemic inflammatory response syndrome (SIRS) assessed as increase in body temperature at 1.25 mg/kg,po 2 hrs prior to mTNFalpha and z-VAD-FMK stimulation and measured upto 18 hrs by electric thermometer analysis; type: functional, organism-based; details: time 20.0 hrs
Mus musculus [7] = assay: Anti-inflammatory activity against C57BL/6J mouse model of TNFalpha-induced systemic inflammatory response syndrome (SIRS) assessed as decrease in IL-6 level in lung at 1.25 to 5 mg/kg,po 2 hrs prior to mTNFalpha and z-VAD-FMK stimulation for 8 hrs by ELISA; type: functional, organism-based; details: dose 1.25-5 mg/kg, time 10.0 hrs
[8] = Metabolic stability in mouse liver mitochondria assessed as degradation rate at 4 micromol/L and measured upto 240 mins; type: ADME; details: 4 h, 4 µM, dose 4 µmol/L
[9] = Acute toxicity in mouse assessed as pathological damage in lung at 100 to 200 mg/kg,IG and measured after 14 days by H and E staining based microscopy; type: organism-based; details: in vivo, po, 336 h, dose 100-200 mg/kg, time 14 day

O=C(Cc1cccc(OC(F)(F)F)c1)Nc1cc(-c2ccc3nc(NC(=O)C4CC4)sc3c2)ccc1F
Activity (HT-29 [1]): Dose-Dependent Effect | Activity (HT-29 [2]): inactive | Activity (HT-29 [3]): inactive | inhibition [4]: Dose-Dependent Effect | inhibition [5]: Dose-Dependent Effect | Activity (Mus musculus [6]): Active | Activity (Mus musculus [7]): Dose-Dependent Effect | Stability [8]: Stable | Activity [9]: Non-Toxic
